# In patent publication US20220349825A1, “METHOD AND DEVICE FOR MEASURING CELL CONTRACTILITY” (THE ROYAL INSTITUTION FOR THE ADVANCEMENT OF …, priority 2021, published 2022):
# Test system: NIH-3T3 fibroblast cells
# Assay: time-dependent coverage-based (PaCS) measurement of cellular forces of fibroblasts on square patterns on 12 kPa PDMS, compared with TFM
# Assay type: cell-based, mouse
# Details: 2 μM Cytochalasin D at end of 18 hours measurement; square patterns ~2400 μm^2; 12 kPa PDMS substrate
# Protocol: The ability of the coverage-based technique to resolve time-dependent work was further tested. Fibroblast cellular forces on square patterns (˜2400 μm^2) on PDMS substrates (12 kPa) for 18 hours were measured; to further test the sensitivity of this technique the cellular forces was inhibited by depolymerizing actin using Cytochalasin D (Cyto D) in the last few hours of measurement. Using time-dependent coverage-based technique, cellular forces with time was measured when compared to TFM measurements, even after the Cyto D treatment, as presented in FIGS. 9c and 9d. […] Also the low strain energy values of ˜0.1 pJ indicate minimum resolution of the measurement on 12 kPa PDMS substrate. […]
# After 16-18 hours of cell seeding, cells were stained with cell tracker green CMFDA (Thermofisher) to detect cell boundaries, and the plates were transferred to a lab-built heated stage perfused with 5% CO2 and mounted on a confocal microscope (Leica TCS SP8 with a 10×0.4 NA objective). With this setup, cells were imaged with transmission and fluorescence microscopy for extended periods, while maintaining a controlled culture environment
# In PaCS, cells are confined on adhesive micropatterns of known area on linearly elastic silicone substrates. […] First, the deformed and undeformed pattern area are measured by thresholding the fluorescent pattern images. […]
structure (smiles),measurement,value
C=C1[C@@H](C)[C@H]2[C@H](Cc3ccccc3)NC(=O)[C@]23[C@H](OC(C)=O)/C=C/[C@@](C)(O)C(=O)[C@@H](C)C/C=C/[C@H]3[C@@H]1O [Cytochalasin D],cellular force (contractility) after drug treatment,decreased cellular force
same,pattern area after drug treatment,increased pattern area
